# Measured values taken from ChEMBL document CHEMBL4819085, “Dipyridyl-substituted thiosemicarbazone as a potent broad-spectrum inhibitor of metallo-β-lactamases” (Bioorg Med Chem, 2021).
# Calls of active or inactive are those of the source. The calls are words filed in the database; no cut-off is given here.
# Tests used:
# Klebsiella pneumoniae [1] = assay: In vivo antibacterial activity against Klebsiella pneumoniae producing NDM-1 infected in mouse assessed as reduction in bacterial load in spleen at 2 mg/kg, ip in presence of meropenem; type: functional, organism-based
# Escherichia coli [2] = assay: Potentiation of meropenem-induced antibacterial activity against Escherichia coli 24 assessed as meropenem MIC incubated for 24 hrs by broth microdilution method; type: functional
# Escherichia coli [3] = assay: Inhibition of Escherichia coli NDM-1 assessed as potentiation of meropenem-induced antibacterial activity by measuring meropenem MIC incubated for 24 hrs by broth microdilution method
# Escherichia coli [4] = assay: Potentiation of meropenem-induced antibacterial activity against Escherichia coli 24 assessed as fold reduction in meropenem MIC incubated for 24 hrs by broth microdilution method relative to meropenem alone; type: functional
# Escherichia coli [5] = assay: Antibacterial activity against Escherichia coli producing NDM-1 assessed as fractional inhibitory concentration index incubated for 24 hrs in presence of meropenem by checkerboard assay; type: functional
# Bacteria [6] = assay: Inhibition of bacterial L1 at 20 uM using meropenem as substrate incubated for 1 hr by spectrometry analysis relative to control
# Escherichia coli [7] = assay: Antibacterial activity against Escherichia coli producing ImiS assessed as fractional inhibitory concentration index incubated for 24 hrs in presence of meropenem by checkerboard assay; type: functional
# Bacteria [8] = assay: (§1) Inhibition of bacterial ImiS expressed in Escherichia coli BL21 (DE3) using meropenem as substrate incubated for 1 hr by spectrometry analysis
# [9] = as §1; set-up: species or system Bacteria
# Escherichia coli [10] = assay: Antibacterial activity against Escherichia coli producing L1 assessed as fractional inhibitory concentration index incubated for 24 hrs in presence of meropenem by checkerboard assay; type: functional, organism-based
# Escherichia coli [11] = assay: Inhibition of Escherichia coli NDM-1 assessed as bacterial growth rate in presence of ZnCl2 and meropenem relative to control; set-up: scale not given: the % may be the effect or the level left
# Escherichia coli [12] = assay: Potentiation of meropenem-induced antibacterial activity against Escherichia coli 08 assessed as meropenem MIC incubated for 24 hrs by broth microdilution method; type: functional
# Escherichia coli [13] = assay: Inhibition of Escherichia coli IMP-1 assessed as potentiation of meropenem-induced antibacterial activity by measuring meropenem MIC incubated for 24 hrs by broth microdilution method
# Bacteria [14] = assay: Inhibition of bacterial IMP-1 at 20 uM using meropenem as substrate incubated for 1 hr by spectrometry analysis relative to control
# Escherichia coli [15] = assay: Antibacterial activity against Escherichia coli 24 assessed as reduction in bacterial growth incubated for 24 hrs by broth microdilution method; type: functional
# Escherichia coli [16] = assay: Potentiation of meropenem-induced antibacterial activity against Escherichia coli 04 assessed as meropenem MIC incubated for 24 hrs by broth microdilution method; type: functional
# Escherichia coli [17] = assay: Synergistic antibacterial activity against Escherichia coli at 16 ug/ml in presence of meropenem; type: functional, organism-based; settings: dose 16.0 µg/ml
# Klebsiella pneumoniae [18] = assay: In vivo antibacterial activity against Klebsiella pneumoniae producing NDM-1 infected in mouse assessed as reduction in bacterial load in liver at 2 mg/kg, ip in presence of meropenem; type: functional, organism-based
# Escherichia coli [19] = assay: Antibacterial activity against Escherichia coli producing IMP-1 assessed as fractional inhibitory concentration index incubated for 24 hrs in presence of meropenem by checkerboard assay; type: functional, organism-based
# Escherichia coli [20] = assay: Bactericidal activity against Escherichia coli producing NDM-1 assessed as reduction in bacterial viability at 4 ug/ml in presence of meropenem incubated for 12 hrs by time kill assay; type: functional, organism-based; settings: dose 4.0 µg/ml
# Bacteria [21] = assay: (§2) Inhibition of bacterial IMP-1 using meropenem as substrate incubated for 1 hr by spectrometry analysis
# [22] = as §2; set-up: species or system Bacteria
# [23] = target: Metallo-beta-lactamase (Escherichia coli) (UniProt Q5U7L7); assay: Inhibition of Escherichia coli VIM-2 assessed as potentiation of meropenem-induced antibacterial activity by measuring meropenem MIC incubated for 24 hrs by broth microdilution method
# Bacteria [24] = assay: (§3) Inhibition of bacterial NDM-1 expressed in Escherichia coli BL21 (DE3) using meropenem as substrate incubated for 1 hr by spectrometry analysis
# [25] = as §3; set-up: species or system Bacteria
# Escherichia coli [26] = assay: Antibacterial activity against Escherichia coli producing VIM-2 assessed as fractional inhibitory concentration index incubated for 24 hrs in presence of meropenem by checkerboard assay; type: functional
# Escherichia coli [27] = assay: Inhibition of Escherichia coli L1 assessed as potentiation of meropenem-induced antibacterial activity by measuring meropenem MIC incubated for 24 hrs by broth microdilution method
# Escherichia coli [28] = assay: Antibacterial activity against Escherichia coli 08 assessed as reduction in bacterial growth incubated for 24 hrs by broth microdilution method; type: functional
# Klebsiella pneumoniae [29] = assay: Potentiation of meropenem-induced antibacterial activity against Klebsiella pneumoniae assessed as meropenem MIC incubated for 24 hrs by broth microdilution method; type: functional
# [30] = target: Metallo-beta-lactamase (Escherichia coli) (UniProt Q5U7L7); assay: Inhibition of Escherichia coli VIM-2 assessed as potentiation of meropenem-induced antibacterial activity by measuring fold reduction in meropenem MIC up to 8 ug/ml incubated for 24 hrs by broth microdilution method relative to meropenem alone; settings: dose microg/ml <=8, time 24.0 hrs
# [31] = target: Metallo-beta-lactamase type 2 (Klebsiella pneumoniae, UniProt C7C422); assay: Inhibition of NDM-1 in Klebsiella pneumoniae using meropenem as substrate incubated for 0.5 hrs
# Metallo-beta-lactamase type 2, sequence (C7C422 whole entry): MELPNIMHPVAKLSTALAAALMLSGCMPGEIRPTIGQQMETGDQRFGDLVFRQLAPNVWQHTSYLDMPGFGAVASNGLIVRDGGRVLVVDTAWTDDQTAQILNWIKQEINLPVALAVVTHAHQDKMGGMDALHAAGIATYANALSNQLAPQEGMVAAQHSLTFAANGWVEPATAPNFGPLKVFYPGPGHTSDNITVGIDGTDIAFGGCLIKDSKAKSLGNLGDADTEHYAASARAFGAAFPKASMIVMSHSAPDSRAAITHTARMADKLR
# [32] = Cytotoxicity against African green monkey Vero E6 cells assessed as cell viability at 50 uM relative to control; type: cell-based, Vero C1008; settings: chlorocebus sabaeus, read-out: Activity
# Escherichia coli [33] = assay: Potentiation of meropenem-induced antibacterial activity against Escherichia coli 01 assessed as meropenem MIC incubated for 24 hrs by broth microdilution method; type: functional
# Bacteria [34] = assay: Reversible inhibition of bacterial NDM-1 assessed as enzyme activity at 50 uM incubated for 6 hrs by ICP-MS analysis
# Bacteria [35] = assay: (§4) Inhibition of bacterial VIM-2 expressed in Escherichia coli BL21 (DE3) using meropenem as substrate incubated for 1 hr by spectrometry analysis
# [36] = as §4; set-up: species or system Bacteria
# Staphylococcus aureus = assay: Antibacterial activity against methicillin-resistant Staphylococcus aureus assessed as reduction in bacterial growth incubated for 24 hrs by broth microdilution method; type: functional
# Escherichia coli [37] = assay: Inhibition of Escherichia coli NDM-1 assessed as synergistic antibacterial activity at 4 ug/ml in presence of meropenem; settings: dose 4.0 µg/ml
# Escherichia coli [38] = assay: Potentiation of meropenem-induced antibacterial activity against Escherichia coli 06 assessed as meropenem MIC incubated for 24 hrs by broth microdilution method; type: functional
# Klebsiella pneumoniae [39] = assay: In vivo antibacterial activity against Klebsiella pneumoniae producing NDM-1 infected in mouse assessed as reduction in bacterial load in spleen at 2 mg/kg, ip; type: functional, organism-based
# Klebsiella pneumoniae [40] = assay: Potentiation of meropenem-induced antibacterial activity against Klebsiella pneumoniae assessed as fold reduction in meropenem MIC incubated for 24 hrs by broth microdilution method relative to meropenem alone; type: functional
# Klebsiella pneumoniae [41] = assay: Antibacterial activity against Klebsiella pneumoniae assessed as reduction in bacterial growth incubated for 24 hrs by broth microdilution method; type: functional
# Escherichia coli [42] = assay: Bactericidal activity against Escherichia coli producing NDM-1 assessed as reduction in bacterial viability upto 64 ug/ml incubated for 12 hrs by time kill assay; type: functional; settings: dose microg/ml <=64
# Escherichia coli [43] = assay: Inhibition of Escherichia coli ImiS assessed as potentiation of meropenem-induced antibacterial activity by measuring fold reduction in meropenem MIC up to 8 ug/ml incubated for 24 hrs by broth microdilution method relative to meropenem alone; settings: dose microg/ml <=8, time 24.0 hrs
structure (smiles),measurement,setting,value
CN(C(=S)NN=C(c1ccccn1)c1ccccn1)C1CCCCC1,inhibition,Klebsiella pneumoniae [1],Active
same,MIC,Escherichia coli [2],16 µg/mL
same,MIC,Escherichia coli [3],8 µg/mL
same,fold change (FC),Escherichia coli [4],2
same,FIC,Escherichia coli [5],0.313
same,inhibition,Bacteria [6],> 90%
same,FIC,Escherichia coli [7],0.313
same,inhibition,Bacteria [8],Dose-Dependent Effect
same,IC50,[9],0.075 µM
same,Activity,Escherichia coli [10],inactive
same,Activity,Escherichia coli [11],65%
same,MIC,Escherichia coli [12],32 µg/mL
same,MIC,Escherichia coli [13],16 µg/mL
same,inhibition,Bacteria [14],> 90%
same,MIC,Escherichia coli [15],16 µg/mL
same,MIC,Escherichia coli [16],16 µg/mL
same,Activity,Escherichia coli [17],Active
same,inhibition,Klebsiella pneumoniae [18],Active
same,Activity,Escherichia coli [19],inactive
same,inhibition,Escherichia coli [20],Active
same,inhibition,Bacteria [21],Dose-Dependent Effect
same,IC50,[22],0.28 µM
same,MIC,[23],8 µg/mL
same,inhibition,Bacteria [24],Dose-Dependent Effect
same,IC50,[25],0.021 µM
same,FIC,Escherichia coli [26],0.313
same,MIC,Escherichia coli [27],32 µg/mL
same,MIC,Escherichia coli [28],16 µg/mL
same,MIC,Klebsiella pneumoniae [29],32 µg/mL
same,fold change (FC),[30],32
same,IC50,[31],13.6 µM
same,viability at 50 µM,[32],> 70%
same,MIC,Escherichia coli [33],32 µg/mL
same,inhibition,Bacteria [34],Active
same,inhibition,Bacteria [35],Dose-Dependent Effect
same,IC50,[36],0.11 µM
same,MIC,Staphylococcus aureus,32 µg/mL
same,inhibition,Escherichia coli [37],Active
same,MIC,Escherichia coli [38],64 µg/mL
same,inhibition,Klebsiella pneumoniae [39],inactive
same,fold change (FC),Klebsiella pneumoniae [40],8
same,MIC,Klebsiella pneumoniae [41],32 µg/mL
same,inhibition (INH),Escherichia coli [42],99%
same,fold change (FC),Escherichia coli [43],64
